Measurements: ChEMBL document CHEMBL5375951, “Beware the Receptor Variants” (J Med Chem, 2023)

Key:
[1] = Agonist activity at MRGPRX4 83L expressed in human HEK293 cells co- expressing Gq assessed as change in intracellular calcium level by calcium mobilization assay; assay type: cell-based
[2] = Agonist activity at MRGPRX4 83S expressed in human HEK293 cells co- expressing Gq assessed as change in intracellular calcium level by calcium mobilization assay; assay type: cell-based

Compound | EC50 [1] [µM] | EC50 [2] [µM]
COc1cccc(CCc2nc3c([nH]2)c(=O)n(CC#N)c(=O)n3CCCCP(=O)(O)O)c1 | 0.435 | 0.0112
CC12CC3CC(C)(C1)CC(C(=O)N[C@H](Cc1ccccc1)C(=O)O)(C3)C2 | 0.00656 | 13.3
C[C@H](CCC(=O)O)[C@H]1CC[C@H]2[C@@H]3CC[C@@H]4C[C@H](O)CC[C@]4(C)[C@H]3C[C@H](O)[C@]12C [DEOXYCHOLIC ACID] | – | 16.9
CC(C)[C@H]1CC[C@H](C(=O)N[C@H](Cc2ccccc2)C(=O)O)CC1 [NATEGLINIDE] | – | > 10
C[C@H](CCC(=O)NCCS(=O)(=O)O)[C@H]1CC[C@H]2[C@@H]3CC[C@@H]4C[C@H](O)CC[C@]4(C)[C@H]3C[C@H](O)[C@]12C [TAURODEOXYCHOLIC ACID] | > 10 | > 10
